Reference: US8399683B2 (TetraLogic Pharmaceuticals, priority 2008, dated 2013)

Columns and labels:
SK-OV-3 cells = experiment: Growth inhibition of ovarian cancer cell line SK-OV-3 (MTT assay, cell survival); format: cell-based; conditions: Homo sapiens, drug concentration that results in 50% cell survival, 72 hrs incubation, reported as ranges
Outline: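 After overnight seeding in McCoy's medium with 10% FBS, SK-OV-3 cells were exposed to compound at 0.003-10 μM for 72 hrs at 37° C. MTT was then added for 3 h, with DMSO solubilization and OD read at 535 nm. CC50 is the concentration giving 50% survival relative to untreated control, reported as ranges.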

cIAP-1 BIR-3 = cIAP-1 BIR-3 (Homo sapiens, UniProt Q13490); experiment: Fluorescence polarization binding affinity to cIAP-1 BIR-3 (competition with AbuRPF-K(5-Fam)-NH2); conditions: 5 nM labeled peptide, 40 nM BIR3, 15 min at RT, pH 7.5; reported as ranges; read-out: KD (c-IAP-1 BIR3)
cIAP-1 BIR-3, sequence (Q13490 266-352 limits assumed): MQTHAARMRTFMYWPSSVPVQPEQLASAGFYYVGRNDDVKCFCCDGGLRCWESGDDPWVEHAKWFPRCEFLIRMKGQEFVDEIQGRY
Outline: (§1)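 Test peptides at varied concentrations competed with 5 nM fluorescent Smac-mimetic tracer for 40 nM BIR3 domain, 15 min at RT in 0.1M potassium phosphate pH 7.5 with […] bovine g-globulin. Polarization (mP) read at 485/520 nm; KD reported in bins (A=<0.1 μM, B=0.1–1 μM, C>1–10 μM, D=>10 μM).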

XIAP BIR-3 = molecular target: T1, XIAP BIR-3 (Homo sapiens, UniProt P98170); experiment: Fluorescence polarization binding affinity to XIAP BIR-3 (competition with AbuRPF-K(5-Fam)-NH2); conditions: 5 nM labeled peptide, 40 nM BIR3, 15 min at RT, pH 7.5; reported as ranges
T1 construct: 40 nM of the respective IAP BIR3
T1 sequence (P98170 241-356 limits assumed): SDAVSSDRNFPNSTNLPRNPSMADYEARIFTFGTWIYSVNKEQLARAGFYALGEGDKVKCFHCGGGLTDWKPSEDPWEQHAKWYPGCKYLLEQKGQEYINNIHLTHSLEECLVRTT
Outline: as §1

SMILES	Kd (cIAP-1 BIR-3) [nM]	Kd (XIAP BIR-3) [nM]	CC50 (SK-OV-3 cells) [nM]
CN[C@@H](C)C(=O)N[C@H](C(=O)N1CC[C@@H]2[C@H]1[C@@H](c1c[nH]c3cc(F)ccc13)CN2S(C)(=O)=O)C(C)C [Example 48, N-{1-[6-(6-Fluoro-1H-indol-3-yl)-4-methanesulfonyl-hexahydro-pyrrolo[3,2-b]pyrrole-1-carbonyl]-2-methyl-propyl}-2-methylamino-propionamide]	< 100	< 100	< 100
CN[C@@H](C)C(=O)N[C@H](C(=O)N1CC[C@@H]2[C@H]1[C@@H](c1c[nH]c3ccc(F)cc13)CN2C(C)=O)[C@@H](C)OC [Example 71, N-{1-[4-Acetyl-6-(5-fluoro-1H-indol-3-yl)-hexahydro-pyrrolo[3,2-b]pyrrole-1-carbonyl]-2-methoxy-propyl}-2-methylamino-propionamide]	< 100	< 100	< 100
CN[C@@H](C)C(=O)N[C@@H](COC)C(=O)N1CC[C@@H]2[C@H]1[C@@H](c1c[nH]c3cc(F)ccc13)CN2C(C)=O [Example 64, N-{2-[4-Acetyl-6-(6-fluoro-1H-indol-3-yl)-hexahydro-pyrrolo[3,2-b]pyrrol-1-yl]-1-methoxymethyl-2-oxo-ethyl}-2-methylamino-propionamide]	< 100	100 to 1000	100 to 1000
CNC(C)C(=O)NC(C(=O)N1CCC2C1CCN2C(=O)C(NC(=O)C(C)NC)C1CCCCC1)C1CCCCC1 (stereo not drawn) [Example 110, N-(1-Cyclohexyl-2-{4-[2-cyclohexyl-2-(2-methylamino-propionylamino)-acetyl]-hexahydro-pyrrolo[3,2-b]pyrrol-1-yl}-2-oxo-ethyl)-2-methylamino-propionamide]	< 100	1000 to 10000	1000 to 10000
CN[C@@H](C)C(=O)N[C@H](C(=O)N1CC[C@@H]2[C@H]1[C@@H](c1c[nH]c3cc(F)ccc13)CN2C)C1CCCCC1 [Example 17, N-{1-Cyclohexyl-2-[6-(6-fluoro-1H-indol-3-yl)-4-methyl-hexahydro-pyrrolo[3,2-b]pyrrol-1-yl]-2-oxo-ethyl}-2-methylamino-propionamide]	< 100	100 to 1000	100 to 1000
CN[C@@H](C)C(=O)N[C@H](C(=O)N1CC[C@@H]2[C@H]1[C@@H](c1c[nH]c3ccc(F)cc13)CN2C(C)=O)C(C)C [Example 68, N-{1-[4-Acetyl-6-(5-fluoro-1H-indol-3-yl)-hexahydro-pyrrolo[3,2-b]pyrrole-1-carbonyl]-2-methyl-propyl}-2-methylamino-propionamide]	< 100	< 100	< 100
CN[C@@H](C)C(=O)N[C@H](C(=O)N1CC[C@H]2NC[C@H](c3c[nH]c4cc(F)ccc34)[C@H]21)C1CCCCC1 [Example 32, N-{1-Cyclohexyl-2-[6-(6-fluoro-1H-indol-3-yl)-hexahydro-pyrrolo[3,2-b]pyrrol-1-yl]-2-oxo-ethyl}-2-methylamino-propionamide]	< 100	< 100	< 100
CN[C@@H](C)C(=O)NC(C)C(=O)N1CC[C@@H]2[C@H]1[C@@H](c1c[nH]c3cc(F)ccc13)CN2C(C)=O (stereo partly drawn) [Example 95]	< 100	< 100	100 to 1000
CN[C@@H](C)C(=O)N[C@H](C(=O)N1CC[C@H]2NC[C@H](c3cn(Cc4ccccc4)c4cc(F)ccc34)[C@H]21)C1CCCCC1 [Example 91]	< 100	< 100	100 to 1000
CN[C@@H](C)C(=O)N[C@H](C(=O)N1CC[C@@H]2[C@H]1[C@@H](c1c[nH]c3cc(F)ccc13)CN2Cc1ccccc1)[C@@H](C)OC [Example 100]	< 100	< 100	< 100

Second part, led by results:

Kd (cIAP-1 BIR-3) [nM]	Kd (XIAP BIR-3) [nM]	SMILES	CC50 (SK-OV-3 cells) [nM]
< 100	< 100	CN[C@@H](C)C(=O)N[C@H](C(=O)N1CC[C@@H]2[C@H]1[C@@H](c1c[nH]c3cc(F)ccc13)CN2C1CCCC1)C(C)(C)C [Example 4]	< 100
100 to 1000	> 10000	CN[C@@H](C)C(=O)N[C@H](C(=O)N1CC[C@@H]2[C@H]1[C@H](c1c[nH]c3cc(F)ccc13)CN2C1CCCC1)[C@@H](C)O [Example 14, N-{1-[4-Cyclopentyl-6-(6-fluoro-1H-indol-3-yl)-hexahydro-pyrrolo[3,2-b]pyrrole-1-carbonyl]-2-hydroxy-propyl}-2-methylamino-propionamide]	> 10000
< 100	< 100	CN[C@@H](C)C(=O)N[C@@H](COC)C(=O)N1CC[C@H]2NC[C@H](c3c[nH]c4cc(F)ccc34)[C@H]21 [Example 34, N-{2-[6-(6-Fluoro-1H-indol-3-yl)-hexahydro-pyrrolo[3,2-b]pyrrol-1-yl]-1-methoxymethyl-2-oxo-ethyl}-2-methylamino-propionamide]	1000 to 10000
100 to 1000	1000 to 10000	CN[C@@H](C)C(=O)N[C@H](C(=O)N1CC[C@H]2NCC[C@H]21)C1CCCCC1 [Example 109, N-[1-Cyclohexyl-2-(hexahydro-pyrrolo[3,2-b]pyrrol-1-yl)-2-oxo-ethyl]-2-methylamino-propionamide]	> 10000
< 100	100 to 1000	CN[C@@H](C)C(=O)N[C@H](C(=O)N1C[C@@H](O)[C@H]2NC[C@H](c3c[nH]c4cc(F)ccc34)[C@H]21)C1CCCCC1 [Example 85]	100 to 1000
< 100	< 100	CN[C@@H](C)C(=O)N[C@H](C(=O)N1CC[C@@H]2[C@H]1[C@@H](c1c[nH]c3cc(F)ccc13)CN2C(=O)c1ccccc1)C1CCCCC1 [Example 38, N-{2-[4-Benzoyl-6-(6-fluoro-1H-indol-3-yl)-hexahydro-pyrrolo[3,2-b]pyrrol-1-yl]-1-cyclohexyl-2-oxo-ethyl}-2-methylamino-propionamide]	< 100
< 100	< 100	CN[C@@H](C)C(=O)N[C@H](C(=O)N1CC[C@@H]2[C@H]1[C@@H](c1c[nH]c3cc(F)ccc13)CN2C(=O)C(F)(F)F)C1CCCCC1 [Example 37, N-{1-Cyclohexyl-2-[6-(6-fluoro-1H-indol-3-yl)-4-(2,2,2-trifluoro-acetyl)-hexahydro-pyrrolo[3,2-b]pyrrol-1-yl]-2-oxo-ethyl}-2-methylamino-propionamide]	< 100
< 100	< 100	CN[C@@H](C)C(=O)N[C@H](C(=O)N1CC[C@H]2NC[C@H](c3c[nH]c4ccccc34)[C@H]21)[C@@H](C)OC [Example 90]	1000 to 10000
< 100	< 100	CN[C@@H](C)C(=O)N[C@H](C(=O)N1CC[C@@H]2[C@H]1[C@@H](c1c[nH]c3ccc(F)cc13)CN2C(C)=O)C(C)(C)C [Example 69, N-{1-[4-Acetyl-6-(5-fluoro-1H-indol-3-yl)-hexahydro-pyrrolo[3,2-b]pyrrole-1-carbonyl]-2,2-dimethyl-propyl}-2-methylamino-propionamide]	< 100
< 100	< 100	CN[C@@H](C)C(=O)N[C@@H](CO)C(=O)N1CC[C@@H]2[C@H]1[C@@H](c1c[nH]c3cc(F)ccc13)CN2C(C)=O [Example 63, N-{2-[4-Acetyl-6-(6-fluoro-1H-indol-3-yl)-hexahydro-pyrrolo[3,2-b]pyrrol-1-yl]-1-hydroxymethyl-2-oxo-ethyl}-2-methylamino-propionamide]	1000 to 10000
< 100	< 100	CN[C@@H](C)C(=O)N[C@H](C(=O)N1CC[C@@H]2[C@H]1[C@@H](c1c[nH]c3cc(F)ccc13)CN2C(C)=O)[C@@H](C)OC [Example 66, N-{1-[4-Acetyl-6-(6-fluoro-1H-indol-3-yl)-hexahydro-pyrrolo[3,2-b]pyrrole-1-carbonyl]-2-methoxy-propyl}-2-methylamino-propionamide]	< 100
< 100	100 to 1000	CN[C@@H](C)C(=O)N[C@@H](CO)C(=O)N1CC[C@@H]2[C@H]1[C@@H](c1c[nH]c3cc(F)ccc13)CN2C1CCCC1 [Example 11]	> 10000
< 100	100 to 1000	CN[C@@H](C)C(=O)N[C@H](C(=O)N1CC[C@@H]2[C@H]1[C@@H](c1c[nH]c3cc(F)ccc13)CN2Cc1ccccc1)C(C)C [Example 105]	< 100
